Assay results as given in PubChem BioAssay (NCI).
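These data come from cells grown in 96-well plates and exposed to compound for 48 hours at five concentrations. TGI is the concentration that stops growth completely.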

Tests used:
Test in all cases: growth of human tumour cells (NCI), 48 h
A549 NSCLC = system: A549 NSCLC
ACHN renal = system: ACHN renal
CCRF-CEM leukemia = system: CCRF-CEM leukemia
LXFL 529 NSCLC = system: LXFL 529 NSCLC
M19-MEL melanoma = system: M19-MEL melanoma
OVCAR-3 ovarian = system: OVCAR-3 ovarian
SF-295 CNS = system: SF-295 CNS
SNB-75 CNS = system: SNB-75 CNS
XF 498 CNS = system: XF 498 CNS
A498 renal = system: A498 renal
RPMI-8226 leukemia = system: RPMI-8226 leukemia
MDA-N = system: MDA-N

SMILES | TGI (A549 NSCLC) | TGI (ACHN renal) | TGI (CCRF-CEM leukemia) | TGI (LXFL 529 NSCLC) | TGI (M19-MEL melanoma) | TGI (OVCAR-3 ovarian) | TGI (SF-295 CNS) | TGI (SNB-75 CNS) | TGI (XF 498 CNS) | TGI (A498 renal) | TGI (RPMI-8226 leukemia) | TGI (MDA-N)
Cc1cn(C2CC(O)C(CO)C2C)c(=O)[nH]c1=O (configuration not stated) | > 100 µM | > 100 µM | > 100 µM | > 100 µM | > 100 µM | > 100 µM | > 100 µM | > 100 µM | > 100 µM | – | – | –
CC(C)(C)C#C[P+](c1ccccc1)(c1ccccc1)c1ccccc1 | 1.91 µM | 10.3 µM | 0.699 µM | 0.67 µM | 1.14 µM | 1.32 µM | 1.49 µM | 0.553 µM | – | 1.35 µM | 0.212 µM | –
Brc1ccc2c(-c3nc(-c4c[nH]c5ccccc45)cs3)c[nH]c2c1 | 74.6 µM | > 100 µM | > 100 µM | – | – | > 100 µM | > 100 µM | > 100 µM | – | > 92.3 µM | > 100 µM | > 100 µM
Cc1cc(NS(=O)(=O)c2ccc(NC(=O)c3ccc4nc5ccccc5c(Nc5ccc(S(=O)(=O)N=C(N)N)cc5)c4c3)cc2)no1 | 31.4 µM | 26.4 µM | 34.3 µM | – | – | 34.6 µM | 38 µM | 51.9 µM | – | 33.7 µM | 71.9 µM | 41.4 µM
CC(=O)N1N=C(c2c(O)ccc3ccccc23)CC1C(=O)c1ccco1 (configuration not stated) | > 100 µM | > 100 µM | 57 µM | – | – | 44 µM | > 100 µM | > 100 µM | – | > 100 µM | 57.2 µM | 76.9 µM
COc1ccc2oc(S(=O)(=O)N3CC(CCl)c4ccc([N+](=O)[O-])cc43)cc2c1 (configuration not stated) | 18.1 µM | > 48.1 µM | > 100 µM | – | – | 0.457 µM | 0.196 µM | > 36.8 µM | – | 2.82 µM | > 100 µM | 11 µM
C/C(O)=C/c1nc2ccccc2nc1/C=C(/C)O | 51.3 µM | 47.7 µM | 45.9 µM | – | – | 40.7 µM | 67.5 µM | 63.3 µM | – | 67.4 µM | 56.5 µM | > 100 µM
COc1ccc(/C=N\N2CC(=O)N3C4C=CC(CC4)N3C2=O)cc1 (configuration not stated) | > 100 µM | > 100 µM | > 100 µM | – | – | > 100 µM | > 100 µM | > 100 µM | – | > 100 µM | > 100 µM | > 100 µM
C[C@]12CC[C@H]3[C@@H](CCC4=CC(=O)C=C[C@@]43O)[C@@H]1CCC2=O | > 100 µM | > 100 µM | > 100 µM | – | – | > 100 µM | > 100 µM | > 100 µM | – | > 100 µM | > 100 µM | > 100 µM
CO/C(=N\N=C\c1ccc(Cl)cc1)c1ccncc1 | > 100 µM | > 100 µM | > 100 µM | > 100 µM | – | > 100 µM | > 100 µM | > 100 µM | > 100 µM | > 100 µM | > 100 µM | –
COc1cc(C2c3cc4c(cc3C(O)C3CCC(=O)N23)OCO4)cc(OC)c1OC (configuration not stated) | > 100 µM | > 100 µM | > 100 µM | – | – | > 100 µM | 32.6 µM | > 100 µM | – | > 100 µM | > 100 µM | 38.2 µM
CCCC(Sc1nc(N)nc2nc[nH]c12)C(=O)O (configuration not stated) | > 100 µM | > 100 µM | > 100 µM | – | – | > 100 µM | > 100 µM | > 100 µM | – | > 100 µM | > 100 µM | > 100 µM
C=CCOc1ccc(C2c3c([nH][nH]c3=O)CC(O)(OCC)C2C(=O)OCC)cc1OC (configuration not stated) | > 100 µM | > 100 µM | > 100 µM | – | – | > 100 µM | > 100 µM | > 100 µM | – | > 100 µM | > 100 µM | > 100 µM
NNC(=O)CC(=O)Nc1ccc(Cl)cc1 | > 100 µM | > 100 µM | > 100 µM | – | – | > 100 µM | > 100 µM | > 100 µM | – | > 100 µM | > 100 µM | > 100 µM
Oc1nc(N/N=C/c2c[nH]c3ccccc23)[nH]c1/C=C1\C=Nc2ccccc21 | 42.3 µM | 49.1 µM | 25.3 µM | – | – | 29.6 µM | 40.9 µM | 78 µM | – | 27.8 µM | 25.5 µM | > 100 µM
Cc1c(-c2ccccc2)c(C#N)c2nnn(-c3ccccc3)c(=O)n12 | > 100 µM | > 100 µM | > 100 µM | – | – | > 100 µM | > 100 µM | > 100 µM | – | > 100 µM | > 100 µM | > 100 µM
Nn1c(Cc2ccc(Cl)cc2)n[nH]c1=O | > 100 µM | > 100 µM | > 100 µM | – | – | > 100 µM | > 100 µM | > 100 µM | – | > 100 µM | > 100 µM | > 100 µM
Cc1oc2nc1C(=O)NCc1nc(cs1)C(=O)N[C@H](C(C)C)c1nc(cs1)C(=O)N[C@H]2C | > 100 µM | > 100 µM | > 100 µM | – | – | > 100 µM | 99.4 µM | > 100 µM | – | > 100 µM | 54.4 µM | > 100 µM
CC(C)(C)c1cc(C(O)(C(=O)O)C(=O)O)cc(C(C)(C)C)c1O | > 100 µM | > 100 µM | > 100 µM | – | – | > 100 µM | > 100 µM | > 100 µM | – | > 100 µM | > 100 µM | > 100 µM
COC(=O)c1c(OC(C)=O)ccc2c1c1c(OC(C)=O)c3ccccc3c(OC(C)=O)c1n2Cc1cc(OC)cc(OC)c1 | > 100 µM | > 100 µM | > 100 µM | – | – | > 100 µM | > 100 µM | 54.3 µM | – | 89.8 µM | 20.8 µM | 81.4 µM
CC1(C)C2CCC1(CS(=O)(=O)Nc1ccccc1)C(=O)C2 (configuration not stated) | > 100 µM | > 100 µM | > 100 µM | – | – | > 100 µM | > 100 µM | > 100 µM | – | > 100 µM | > 100 µM | > 100 µM
C=Nc1ccc([N+](=O)[O-])cc1 | > 100 µM | > 100 µM | > 100 µM | > 100 µM | > 100 µM | > 100 µM | > 100 µM | > 100 µM | > 100 µM | > 100 µM | > 31.6 µM | –
Cc1cccc2c1C(=O)C1(Cc3ccccc3C1=O)C2 (configuration not stated) | > 100 µM | > 100 µM | > 100 µM | – | – | > 100 µM | > 100 µM | > 100 µM | – | > 100 µM | > 100 µM | > 100 µM
O=c1c2ccccc2oc2c1ccc1ncccc12 | 22.2 µM | 23.1 µM | > 100 µM | – | – | 89.6 µM | 45.9 µM | 95.5 µM | – | 25 µM | > 100 µM | > 100 µM
COC(=O)C1=C(C)N2CCCOC2(C)C(C(=O)OC)C1c1cccc(Cl)c1 (configuration not stated) | > 100 µM | 93.3 µM | > 100 µM | 74.6 µM | 54.3 µM | 70.8 µM | 88.9 µM | 42.3 µM | – | – | 52.1 µM | –
O=C(Nc1ccccc1)c1cc2c(cc1Cl)Sc1nccn1S2(=O)=O | > 100 µM | > 83.1 µM | > 75.5 µM | – | – | 59.3 µM | > 100 µM | 63.7 µM | – | > 70.9 µM | 70.5 µM | > 100 µM
CCOC(=O)C(=[N+]=[N-])C(=O)C[N+]12CCN(CC1)CC2 | > 100 µM | > 100 µM | > 100 µM | – | – | > 100 µM | > 100 µM | > 100 µM | – | > 100 µM | > 100 µM | > 100 µM
